According to patent publication US8153368B2, “Four-jointed box (FJX1) in cancer diagnosis and treatment” (Vanderbilt University, priority 2007, dated 2012):

How the values were obtained:
[1] = test system: FJX1 mRNA in SW620 colon cancer cells; assay: qRT-PCR of FJX1 mRNA after γ-secretase inhibition in SW620 cells; type: cell-based, human; conditions: 200 nM DAPT vs vehicle (DMSO), 16 hrs
From the text: (§1) FIG. 19A-B—Inhibition of Notch signaling causes a reduction in fjx1 expression in colon cancer cells. Fjx1 expression levels as determined by qRT-PCR in (FIG. 19A) SW480 and (FIG. 19B) SW620 colon cancer cells following treatment with the γ-secretase inhibitor DAPT.
(§2) Since four-jointed in Drosophila is regulated by Notch signaling, and mouse fjx1 expression appears to be a target of Notch regulation, the inventors predicted that inhibition of Notch signaling would inhibit FJX1 expression in colon cancer cells. A reliable pharmacological method of inhibiting Notch signaling is to block release of the Notch intracellular domain through inhibition of γ-secretase activity (van Es et al., 2005). Therefore, the inventors used a selective inhibitor of γ-secretase, DAPT, or vehicle (DMSO) to treat SW480 and SW620 cells for 16 hrs and determined the effect on levels of FJX1.
(§3) FJX1 expression in colon cancer cells. In preliminary studies examining the role of fjx1 as it relates to Notch signaling in CRC, the inventors have assessed expression of fjx1 mRNA in several human colon cancer cell lines and found abundant expression of fjx1 in both SW480 and SW620 cells (in comparison with colon adenomas), and less abundant expression in HT29 cells as determined by qRT-PCR (data not shown). […]

Notch pathway [2] = assay: Notch-responsive reporter (4xCSL-Luc) in HEK293T cells; type: cell-based, human; conditions: transient transfection, DAPT 200 nM or dnMAM
Procedure: FIGS. 18A-B—Experimental inactivation of Notch pathway signaling in HEK293 cells. Transient transfections of cells was carried out using a Notch promoter reporter plasmid (4xCSL) and a control reporter (pRL-tk). The Relative Light Units (4xCSL/pRL-tk) are plotted for each treatment group. (FIG. 18A) Notch activity in HEK293 cells following treatment with NICD, NICD+200 nM DAPT, LNG (negative control), LNG+200 nM DAPT and 200 nM DAPT. (FIG. 18B) Notch promoter activity in HEK293 cells following treatment with dnMAM, NICD, NICD+dnMAM, LNG and LNG+dnMAM.
as §3, with “shown). Since four-jointed in Drosophila is regulated by Notch signaling, and mouse fjx1 expression appears to be a target of Notch regulation, the inventors predicted that inhibition of Notch signaling would inhibit fjx1 expression in colon cancer cells. A reliable pharmacological method of inhibiting Notch signaling is to block release of the Notch intracellular domain through inhibition of γ-secretase activity (van Es, 2005).” for “shown).”

Notch pathway [3] = assay: Notch-responsive reporter (4xCSL-Luc) in SW480 cells; type: cell-based, human; conditions: data not shown
From the text: FJX1 expression in colon cancer cells. In preliminary studies examining the role of fjx1 as it relates to Notch signaling in CRC, the inventors have assessed expression of fjx1 mRNA in several human colon cancer cell lines and found abundant expression of fjx1 in both SW480 and SW620 cells (in comparison with colon adenomas), and less abundant expression in HT29 cells as determined by qRT-PCR (data not shown). Since four-jointed in Drosophila is regulated by Notch signaling, and mouse fjx1 expression appears to be a target of Notch regulation, the inventors predicted that inhibition of Notch signaling would inhibit fjx1 expression in colon cancer cells. A reliable pharmacological method of inhibiting Notch signaling is to block release of the Notch intracellular domain through inhibition of γ-secretase activity (van Es, 2005). A complementary genetic method of Notch inhibition is through the use of a truncated, dominant negative construct of Mastermind or “dnMAM” (pCS2-Myc 1-30aa Mastermind a gift from K. A. Jones, Ph.D., the Salk Institute, La Jolla, Calif.) (Fryer, 2002). The dnMAM is mutated such that it cannot form a functional RBPJ complex and therefore, cannot activate the Notch responsive promoter. […] The inventors have also used DAPT treatments of SW480 and SW620 cells (200 nM for 16 hrs) to block expression of fjx1 in response to Notch signaling (FIG. 19).

[4] = test system: FJX1 mRNA in SW480 colon cancer cells; assay: qRT-PCR of FJX1 mRNA after γ-secretase inhibition in SW480 cells; type: cell-based, human; conditions: 200 nM DAPT vs vehicle (DMSO), 16 hrs
Procedure: FIG. 3—Decreased FJX1 expression following inhibition of […] (DAPT) in SW480 colon cancer cells. Cells were grown to 70-80% confluence using complete RPMI and then treated with 200 nM of DAPT or vehicle. The RNA was harvested 16 hrs later using an RNeasy™ kit (Qiagen). qRT-PCR was performed as outlined in the text. Gene expression values were normalized to a housekeeping gene (PMM1) for the final analysis. The values are expressed as fold-change in comparison to normal colonic mucosal levels.
as §1
as §2, with “FJX1. […]” for “FJX1.”

FJX1 mRNA = assay: qRT-PCR of FJX1 expression in rectal cancer biopsies before and after celecoxib; type: in vivo, human; conditions: range in the four of five rectal cancers that were down-regulated; pre vs post treatment

| Compound | levels of FJX1 mRNA [1] | Notch promoter reporter activity (4xCSL/pRL-tk relative light units) (Notch pathway [2]) | Notch promoter reporter activity (4xCSL-Luc) (Notch pathway [3]) | levels of FJX1 mRNA [4] | fjx1 mRNA decrease after Celecoxib treatment (qRT-PCR) (FJX1 mRNA) |
| --- | --- | --- | --- | --- | --- |
| C[C@H](NC(=O)Cc1cc(F)cc(F)c1)C(=O)N[C@H](C(=O)OC(C)(C)C)c1ccccc1 [DAPT] | reduced the levels of FJX1 mRNA | specific Notch pathway inhibition | specific Notch pathway inhibition | reduced the levels of FJX1 mRNA |  |
| Cc1ccc(-c2cc(C(F)(F)F)nn2-c2ccc(S(N)(=O)=O)cc2)cc1 [celecoxib] |  |  |  |  | 2.5-17.5 fold decrease |
